From ChEMBL document CHEMBL1133898 (Bioorg Med Chem Lett, 2001) come the findings set out here.

Bounds are passed on as bounds.

The target of assay [1] is T1, Norepinephrine transporter (Rattus norvegicus, UniProt Q9WTR4). Nature of the assay: Displacement of [3H]NE from Norepinephrine transporter of rat brain. In general terms: Loss of bound radioactivity is the signal in a displacement assay; it reports binding, not function.
For assay [2], the target named is T2, Sodium-dependent serotonin transporter (Rattus norvegicus, UniProt P31652). As to the kind of experiment: Displacement of [3H]5-HT from serotonin transporter of rat brain.
The target of assay [3] is T3, Sodium-dependent dopamine transporter (Rattus norvegicus, UniProt P23977). As to the kind of experiment: Displacement of [3H][…] from dopamine transporter (DAT) of rat striatal membrane.
The target of assay [4] is T3, Sodium-dependent dopamine transporter. As to the kind of experiment: Inhibition of high affinity uptake of [3H]DA using rat nerve endings obtained from brain regions enriched in DAT.
In assay [5] the target is T2, Sodium-dependent serotonin transporter. As to the kind of experiment: Inhibitory concentration binding to Serotonin transporter using 0.5 nM […].
Assay [6] concerns the target T1, Norepinephrine transporter. As to the kind of experiment: (§1) Inhibitory concentration binding to Norepinephrine transporter using 0.2 nM […]. The format is functional.
The target in assay [7] is T3, Sodium-dependent dopamine transporter. As to the kind of experiment: Inhibitory concentration binding to dopamine transporter using 0.5 nM [3H]WIN-35428.
In assay [8] the target is T1, Norepinephrine transporter. Nature of the assay: Evaluated for ability to inhibit high affinity uptake of [3H]-NE using rat nerve endings obtained from brain regions enriched in Norepinephrine transporter. Type of assay: functional.
In assay [9] the target is T2, Sodium-dependent serotonin transporter. Nature of the assay: Evaluated for ability to inhibit high affinity uptake of [3H]5-HT using rat nerve endings obtained from brain regions enriched in serotonin transporter (5HTT). The format is functional.
For assay [10], the target named is T3, Sodium-dependent dopamine transporter. As to the kind of experiment: Inhibitory concentration binding to Dopamine transporter using 0.5 nM [3H]WIN-35428.
For assay [11], the target named is T1, Norepinephrine transporter. Described as §1.
In assay [12] the target is T1, Norepinephrine transporter. Nature of the assay: Evaluated for its ability to inhibit high affinity uptake of [3H]NE using rat nerve endings obtained from brain regions enriched in norepinephrine transporter (NET). The format is functional.
Assay [13] addresses T2, Sodium-dependent serotonin transporter. Nature of the assay: Evaluated for its ability to inhibit high affinity uptake of [3H]-5-HT using rat nerve endings obtained from brain regions enriched in serotonin transporter (5HTT). The format is functional.

T1 sequence (Q9WTR4 whole entry): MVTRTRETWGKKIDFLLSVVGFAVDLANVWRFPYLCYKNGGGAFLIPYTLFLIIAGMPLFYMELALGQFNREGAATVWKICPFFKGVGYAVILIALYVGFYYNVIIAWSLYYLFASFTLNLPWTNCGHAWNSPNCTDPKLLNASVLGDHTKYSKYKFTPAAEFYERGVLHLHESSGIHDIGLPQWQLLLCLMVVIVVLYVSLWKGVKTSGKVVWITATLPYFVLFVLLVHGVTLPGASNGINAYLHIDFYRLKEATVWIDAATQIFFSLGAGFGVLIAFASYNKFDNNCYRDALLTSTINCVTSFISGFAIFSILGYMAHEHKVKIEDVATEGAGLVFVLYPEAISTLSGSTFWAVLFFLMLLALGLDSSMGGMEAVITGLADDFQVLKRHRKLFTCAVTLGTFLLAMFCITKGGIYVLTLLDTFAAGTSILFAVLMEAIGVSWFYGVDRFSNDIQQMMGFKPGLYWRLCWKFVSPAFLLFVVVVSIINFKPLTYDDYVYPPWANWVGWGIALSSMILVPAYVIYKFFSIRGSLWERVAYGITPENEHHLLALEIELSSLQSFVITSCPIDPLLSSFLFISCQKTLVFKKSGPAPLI
T3 sequence (P23977 whole entry): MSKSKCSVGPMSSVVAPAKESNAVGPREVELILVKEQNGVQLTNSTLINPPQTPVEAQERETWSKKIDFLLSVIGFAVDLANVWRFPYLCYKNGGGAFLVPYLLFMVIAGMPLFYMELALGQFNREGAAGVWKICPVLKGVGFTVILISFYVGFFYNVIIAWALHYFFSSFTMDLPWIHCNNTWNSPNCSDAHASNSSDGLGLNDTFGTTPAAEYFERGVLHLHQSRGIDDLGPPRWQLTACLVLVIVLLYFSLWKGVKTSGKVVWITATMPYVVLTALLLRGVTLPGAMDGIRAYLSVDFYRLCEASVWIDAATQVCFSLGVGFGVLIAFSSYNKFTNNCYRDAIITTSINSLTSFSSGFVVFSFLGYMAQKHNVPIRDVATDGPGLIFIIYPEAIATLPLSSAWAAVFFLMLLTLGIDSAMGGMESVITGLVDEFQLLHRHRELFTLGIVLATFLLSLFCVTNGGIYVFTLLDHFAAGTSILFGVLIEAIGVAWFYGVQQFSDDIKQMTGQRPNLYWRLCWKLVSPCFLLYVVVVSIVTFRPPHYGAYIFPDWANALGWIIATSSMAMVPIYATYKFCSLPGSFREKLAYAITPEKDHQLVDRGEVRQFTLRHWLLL
T2 sequence (P31652 whole entry): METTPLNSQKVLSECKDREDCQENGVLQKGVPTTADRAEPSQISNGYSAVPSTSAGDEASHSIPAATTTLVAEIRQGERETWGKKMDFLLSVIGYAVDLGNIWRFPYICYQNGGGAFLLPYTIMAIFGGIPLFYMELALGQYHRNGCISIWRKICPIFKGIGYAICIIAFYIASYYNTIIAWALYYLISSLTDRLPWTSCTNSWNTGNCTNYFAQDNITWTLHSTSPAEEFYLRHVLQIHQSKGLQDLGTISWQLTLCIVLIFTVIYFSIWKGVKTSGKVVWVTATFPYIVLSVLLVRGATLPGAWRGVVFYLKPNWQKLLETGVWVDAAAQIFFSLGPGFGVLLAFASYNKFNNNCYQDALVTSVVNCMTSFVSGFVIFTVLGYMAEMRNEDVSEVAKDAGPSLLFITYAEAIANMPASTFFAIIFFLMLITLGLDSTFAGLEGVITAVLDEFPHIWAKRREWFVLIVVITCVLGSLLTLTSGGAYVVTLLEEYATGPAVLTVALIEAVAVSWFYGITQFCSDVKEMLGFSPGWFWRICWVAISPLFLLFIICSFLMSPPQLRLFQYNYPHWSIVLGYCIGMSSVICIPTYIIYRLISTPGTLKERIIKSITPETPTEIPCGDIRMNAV

As for `COC(=O)[C@H]1CN(C)CC[C@@H]1c1ccc(Cl)cc1`, the Ki (usually a measure of affinity in units of concentration, obtained from inhibition or displacement) in [1] stood at 0.252 µM; in [2], 8.49 µM; in assay [3], 0.315 µM.
Regarding `CC(C)c1noc([C@@H]2CN(C)CC[C@H]2c2ccc(Cl)cc2)n1`, the inhibitory constant (Ki) in [1] turned out to be 2.68 µM; in assay [2], 1.22 µM; in assay [3] it was 2.9 µM; in assay [4] it was 3.59 µM.
For `CN1CC[C@@H](c2ccc(Cl)cc2)[C@H](c2nc(-c3ccc(Cl)cc3)no2)C1`, the Ki in [1], in [2], in assay [3] and in [4] was over 3 µM throughout.
Consider `CN1CC[C@H](c2ccc(Cl)cc2)[C@@H](c2nc(-c3ccc(Cl)cc3)no2)C1`, for which the Ki in [1], in [2], in assay [3] and in assay [4] was over 3 µM each time. The IC50 (usually the midpoint of a concentration-inhibition curve) in assay [5] was found to be 0.404 µM; in [6], 4.07 µM; in assay [7] it was 0.00406 µM.
Consider `CN1CC[C@@H](c2ccc(Cl)cc2)[C@H](c2nc(-c3ccccc3)no2)C1`, for which the Ki in assay [4] amounted to 1.71 µM. The IC50 in [8] and in assay [9] was over 3 µM each time.
As to `Cc1noc([C@H]2CN(C)CC[C@@H]2c2ccc(Cl)cc2)n1`, the Ki in assay [1] stood at 0.256 µM; in assay [2], 5.96 µM; in assay [3] it was 0.201 µM; in assay [4], 0.187 µM. The IC50 in assay [10] amounted to 0.00405 µM; in assay [5], 2.58 µM; in [11], 0.363 µM.
Consider `CN1CC[C@@H](c2ccc(Cl)cc2)[C@H](c2nc(-c3ccc(Br)cc3)no2)C1`, for which the inhibition constant Ki in assay [1], in assay [2], in assay [3] and in assay [4] was over 3 µM throughout.
In the case of `CN1CC[C@H](c2ccc(Cl)cc2)[C@@H](c2nc(-c3ccc4c(c3)OCO4)no2)C1`, the Ki in assay [1], in assay [2], in assay [3] and in assay [4] was over 3 µM throughout.
On to `COC(=O)[C@@H]1CN(C)CC[C@H]1c1ccc(Cl)cc1`, for which the Ki in [1] came out at 0.396 µM; in assay [2] it was 0.93 µM; in [3] it was 2 µM; in assay [4] it was 2.93 µM.
For `CC(C)c1noc([C@H]2CN(C)CC[C@@H]2c2ccc(Cl)cc2)n1` the same measures were 0.778 µM, 2.92 µM, 0.494 µM and 0.391 µM.
For the compound `COc1ccc(-c2noc([C@@H]3CN(C)CC[C@H]3c3ccc(Cl)cc3)n2)cc1`, the Ki in [1], in assay [2], in [3] and in [4] was over 3 µM throughout.
In the case of `CN1CC[C@@H](c2ccc(Cl)cc2)[C@H](c2nc(-c3ccc4c(c3)OCO4)no2)C1`, the Ki in assay [1], in [2], in assay [3] and in [4] was over 3 µM each time.
Take `CN1CC[C@H](c2ccc(Cl)cc2)[C@@H](c2nc(-c3ccc(Br)cc3)no2)C1`: the Ki in assay [1], in assay [2], in assay [3] and in assay [4] was over 3 µM in each case.
As to `Cc1noc([C@@H]2CN(C)CC[C@H]2c2ccc(Cl)cc2)n1`, the IC50 is over 1 µM in [12] and over 3 µM in [13]. Moreover, the Ki in assay [4] was determined as 0.955 µM.
In the case of `CN1CC[C@H](c2ccc(Cl)cc2)[C@@H](c2nc(-c3ccccc3)no2)C1`, in [4], the Ki was 0.497 µM. For the same compound, the IC50 in assay [8] was over 10 µM; in assay [9] it was over 3 µM.
As for `COc1ccc(-c2noc([C@H]3CN(C)CC[C@@H]3c3ccc(Cl)cc3)n2)cc1`, the Ki in assay [1], in assay [2], in assay [3] and in assay [4] was over 3 µM in each case.
